Source: US20230085307A1, “PYRIDAZINONE COMPOUND AND HERBICIDE” (NISSAN CHEMICAL CORPORATION, priority 2019, published 2023)

What was measured:
[1] = tested on: late watergrass; assay: Test Example 1: herbicidal activity, application before weed generation under submerged conditions (Table 16, symbol A); assay type: in vivo, late watergrass (Echinochloa oryzicola); conditions: amount of applied herbicide 320 g/ha
Outline: (§1)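 Submerged Wagner pots (alluvial soil, 4 cm water) sown with weed seeds and planted with 2.5-leaf rice seedlings; emulsifiable concentrate diluted in water applied to water surface on sowing day. Held in greenhouse at 25-30 °C; injury scored 0-5 by herbicidal rate after three weeks.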

[2] = tested on: windgrass; assay: Test Example 4: herbicidal effect by soil treatment (Table 19, symbol L); assay type: in vivo, windgrass (Apera spica-venti); conditions: amount of applied herbicide 320 g/ha
Outline: (§2)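 Herbicidal effect was rated 3 weeks after treatment, using the scoring criteria of an earlier test. The compound, formulated as an emulsion and diluted in water to a set herbicide amount, had been sprayed uniformly on soil over freshly sown seeds. Growth took place in a greenhouse at 25° C. to 30° C.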

[3] = tested on: velvetleaf; assay: Test Example 4: herbicidal effect by soil treatment (Table 19, symbol M); assay type: in vivo, velvetleaf (Abutilon theophrasti); conditions: amount of applied herbicide 320 g/ha
Outline: as §2

[4] = tested on: green foxtail; assay: Test Example 4: herbicidal effect by soil treatment (Table 19, symbol G); assay type: in vivo, green foxtail (Setaria viridis); conditions: amount of applied herbicide 320 g/ha
Outline: as §2

[5] = tested on: chickweed; assay: Test Example 4: herbicidal effect by soil treatment (Table 19, symbol P); assay type: in vivo, common chickweed (Stellaria media); conditions: amount of applied herbicide 320 g/ha
Outline: as §2

[6] = tested on: persian speedwell; assay: Test Example 4: herbicidal effect by soil treatment (Table 19, symbol R); assay type: in vivo, Persian speedwell (Veronica persica); conditions: amount of applied herbicide 320 g/ha
Outline: as §2

[7] = tested on: Italian ryegrass; assay: Test Example 4: herbicidal effect by soil treatment (Table 19, symbol K); assay type: in vivo, Italian ryegrass (Lolium multiflorum); conditions: amount of applied herbicide 320 g/ha
Outline: as §2

[8] = tested on: wild oat; assay: Test Example 4: herbicidal effect by soil treatment (Table 19, symbol I); assay type: in vivo, wild oat (Avena fatua); conditions: amount of applied herbicide 320 g/ha
Outline: as §2

[9] = tested on: blackgrass; assay: Test Example 4: herbicidal effect by soil treatment (Table 19, symbol J); assay type: in vivo, blackgrass (Alopecurus myosuroides); conditions: amount of applied herbicide 320 g/ha
Outline: as §2

[10] = tested on: redroot pigweed; assay: Test Example 5: herbicidal effect by foliage application, plastic box (Table 20, symbol N); assay type: in vivo, redroot pigweed (Amaranthus retroflexus); conditions: foliage application, AAH 320 g/ha, evaluated three weeks after application
Outline: (§3)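 Foliar spray test: emulsion formulation diluted in water to a set application rate, sprayed onto 14-day-old plants raised in diluvial soil at 25° C to 30° C under glass. Both herbicidal effect and crop effect rated visually three weeks later.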

[11] = tested on: wild oat; assay: Test Example 5: herbicidal effect by foliage application, plastic box (Table 20, symbol I); assay type: in vivo, wild oat (Avena fatua); conditions: foliage application, AAH 320 g/ha, evaluated three weeks after application
Outline: as §3

[12] = tested on: persian speedwell; assay: Test Example 5: herbicidal effect by foliage application, plastic box (Table 20, symbol R); assay type: in vivo, Persian speedwell (Veronica persica); conditions: foliage application, AAH 320 g/ha, evaluated three weeks after application
Outline: as §3

[13] = tested on: blackgrass; assay: Test Example 5: herbicidal effect by foliage application, plastic box (Table 20, symbol J); assay type: in vivo, blackgrass (Alopecurus myosuroides); conditions: foliage application, AAH 320 g/ha, evaluated three weeks after application
Outline: as §3

[14] = tested on: Chinese sprangletop; assay: Test Example 3: herbicidal effect by foliage application, Wagner pot (Table 18, symbol D); assay type: in vivo, chinese sprangletop (Leptochloa chinensis); conditions: amount of applied herbicide 320 g/ha
Outline: (§4)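 Plants were sown in alluvial soil held under 0.1–0.5 cm standing water and grown 14 days in a greenhouse at 25–30 °C. An emulsifiable formulation, water-diluted to the set dose, was then sprayed onto the foliage, and effects were scored three weeks later using previously defined criteria.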

[15] = tested on: southern crabgrass; assay: Test Example 4: herbicidal effect by soil treatment (Table 19, symbol F); assay type: in vivo, southern crabgrass (Digitaria ciliaris); conditions: amount of applied herbicide 320 g/ha
Outline: as §2

[16] = tested on: Italian ryegrass; assay: Test Example 5: herbicidal effect by foliage application, plastic box (Table 20, symbol K); assay type: in vivo, Italian ryegrass (Lolium multiflorum); conditions: foliage application, AAH 320 g/ha, evaluated three weeks after application
Outline: as §3

[17] = tested on: velvetleaf; assay: Test Example 5: herbicidal effect by foliage application, plastic box (Table 20, symbol M); assay type: in vivo, velvetleaf (Abutilon theophrasti); conditions: foliage application, AAH 320 g/ha, evaluated three weeks after application
Outline: as §3

[18] = tested on: lambsquarters; assay: Test Example 5: herbicidal effect by foliage application, plastic box (Table 20, symbol O); assay type: in vivo, lambsquarters (Chenopodium album); conditions: foliage application, AAH 320 g/ha, evaluated three weeks after application
Outline: as §3

[19] = tested on: chickweed; assay: Test Example 5: herbicidal effect by foliage application, plastic box (Table 20, symbol P); assay type: in vivo, common chickweed (Stellaria media); conditions: foliage application, AAH 320 g/ha, evaluated three weeks after application
Outline: as §3

[20] = tested on: barnyard grass; assay: Test Example 4: herbicidal effect by soil treatment (Table 19, symbol H); assay type: in vivo, barnyard grass (Echinochloa crus-galli); conditions: amount of applied herbicide 320 g/ha
Outline: as §2

[21] = tested on: oval-leafed pondweed; assay: Test Example 1: herbicidal activity, application before weed generation under submerged conditions (Table 16, symbol C); assay type: in vivo, oval-leafed pondweed (Monochoria vaginalis); conditions: amount of applied herbicide 320 g/ha
Outline: as §1

[22] = tested on: barnyard grass; assay: Test Example 3: herbicidal effect by foliage application, Wagner pot (Table 18, symbol H); assay type: in vivo, barnyard grass (Echinochloa crus-galli); conditions: amount of applied herbicide 320 g/ha
Outline: as §4

[23] = tested on: lambsquarters; assay: Test Example 4: herbicidal effect by soil treatment (Table 19, symbol O); assay type: in vivo, lambsquarters (Chenopodium album); conditions: amount of applied herbicide 320 g/ha
Outline: as §2

[24] = tested on: barnyard grass; assay: Test Example 5: herbicidal effect by foliage application, plastic box (Table 20, symbol H); assay type: in vivo, barnyard grass (Echinochloa crus-galli); conditions: foliage application, AAH 320 g/ha, evaluated three weeks after application
Outline: as §3

[25] = tested on: rice flat sedge; assay: Test Example 3: herbicidal effect by foliage application, Wagner pot (Table 18, symbol E); assay type: in vivo, rice flat sedge (Cyperus iria); conditions: amount of applied herbicide 320 g/ha
Outline: as §4

[26] = tested on: green foxtail; assay: Test Example 5: herbicidal effect by foliage application, plastic box (Table 20, symbol G); assay type: in vivo, green foxtail (Setaria viridis); conditions: foliage application, AAH 320 g/ha, evaluated three weeks after application
Outline: as §3

[27] = tested on: southern crabgrass; assay: Test Example 5: herbicidal effect by foliage application, plastic box (Table 20, symbol F); assay type: in vivo, southern crabgrass (Digitaria ciliaris); conditions: foliage application, AAH 320 g/ha, evaluated three weeks after application
Outline: as §3

[28] = tested on: redroot pigweed; assay: Test Example 4: herbicidal effect by soil treatment (Table 19, symbol N); assay type: in vivo, redroot pigweed (Amaranthus retroflexus); conditions: amount of applied herbicide 320 g/ha
Outline: as §2

[29] = tested on: windgrass; assay: Test Example 5: herbicidal effect by foliage application, plastic box (Table 20, symbol L); assay type: in vivo, windgrass (Apera spica-venti); conditions: foliage application, AAH 320 g/ha, evaluated three weeks after application
Outline: as §3

[30] = tested on: Japanese bulrush; assay: Test Example 1: herbicidal activity, application before weed generation under submerged conditions (Table 16, symbol B); assay type: in vivo, Japanese bulrush (Schoenoplectus juncoides); conditions: amount of applied herbicide 320 g/ha
Outline: as §1

Row | Compound | Herbicidal effect, A: late watergrass [1] | herbicidal effect, L: windgrass [2] | herbicidal effect, M: velvetleaf [3] | herbicidal effect, G: green foxtail [4] | herbicidal effect, P: chickweed [5] | herbicidal effect, R: persian speedwell [6] | herbicidal effect, K: Italian ryegrass [7] | herbicidal effect, I: wild oat [8] | herbicidal effect, J: blackgrass [9] | N: redroot pigweed, herbicidal effect (criteria 0-5) [10] | I: wild oat, herbicidal effect (criteria 0-5) [11] | R: persian speedwell, herbicidal effect (criteria 0-5) [12] | J: blackgrass, herbicidal effect (criteria 0-5) [13] | herbicidal effect on D: Chinese sprangletop [14] | herbicidal effect, F: southern crabgrass [15] | K: Italian ryegrass, herbicidal effect (criteria 0-5) [16] | M: velvetleaf, herbicidal effect (criteria 0-5) [17] | O: lambsquarters, herbicidal effect (criteria 0-5) [18] | P: chickweed, herbicidal effect (criteria 0-5) [19] | herbicidal effect, H: barnyard grass [20] | further results
1 | CSc1ccncc1-c1sc2ccc(F)cc2c1-c1c(O)c(C)nn(C)c1=O [2-389] | 3 (Herbicidal rate of 40% or more and less than 70%) | 1 (Herbicidal rate of 5% or more and less than 20%) | 3 (Herbicidal rate of 40% or more and less than 70%) | 3 (Herbicidal rate of 40% or more and less than 70%) | 4 (Herbicidal rate of 70% or more and less than 90%) | 5 (Herbicidal rate of 90% or more (almost completely withered)) | 3 (Herbicidal rate of 40% or more and less than 70%) | 1 (Herbicidal rate of 5% or more and less than 20%) | 0 (Herbicidal rate of 5% or less (almost no effect)) | 5 (Herbicidal rate of 90% or more (almost completely withered)) | 4 (Herbicidal rate of 70% or more and less than 90%) | 5 (Herbicidal rate of 90% or more (almost completely withered)) | 3 (Herbicidal rate of 40% or more and less than 70%) | 3 (Herbicidal rate of 40% or more and less than 70%) | 1 (Herbicidal rate of 5% or more and less than 20%) | 4 (Herbicidal rate of 70% or more and less than 90%) | 5 (Herbicidal rate of 90% or more (almost completely withered)) | 5 (Herbicidal rate of 90% or more (almost completely withered)) | 5 (Herbicidal rate of 90% or more (almost completely withered)) | 3 (Herbicidal rate of 40% or more and less than 70%) | Herbicidal effect, C: oval-leafed pondweed [21]: 0 (Herbicidal rate of 5% or less (almost no effect)); herbicidal effect on H: barnyard grass [22]: 5 (Herbicidal rate of 90% or more (almost completely withered)); herbicidal effect, O: lambsquarters [23]: 5 (Herbicidal rate of 90% or more (almost completely withered)); H: barnyard grass, herbicidal effect (criteria 0-5) [24]: 5 (Herbicidal rate of 90% or more (almost completely withered)); herbicidal effect on E: rice flat sedge [25]: 5 (Herbicidal rate of 90% or more (almost completely withered)); G: green foxtail, herbicidal effect (criteria 0-5) [26]: 5 (Herbicidal rate of 90% or more (almost completely withered)); F: southern crabgrass, herbicidal effect (criteria 0-5) [27]: 5 (Herbicidal rate of 90% or more (almost completely withered)); herbicidal effect, N: redroot pigweed [28]: 5 (Herbicidal rate of 90% or more (almost completely withered)); L: windgrass, herbicidal effect (criteria 0-5) [29]: 4 (Herbicidal rate of 70% or more and less than 90%); Herbicidal effect, B: Japanese bulrush [30]: 0 (Herbicidal rate of 5% or less (almost no effect))
2 | Cc1nn(C)c(=O)c(-c2c(-c3ccc(Cl)s3)sc3ccc(F)cc23)c1O [2-390] | 2 (Herbicidal rate of 20% or more and less than 40%) | 4 (Herbicidal rate of 70% or more and less than 90%) | 3 (Herbicidal rate of 40% or more and less than 70%) | 5 (Herbicidal rate of 90% or more (almost completely withered)) | 4 (Herbicidal rate of 70% or more and less than 90%) | 5 (Herbicidal rate of 90% or more (almost completely withered)) | 5 (Herbicidal rate of 90% or more (almost completely withered)) | 1 (Herbicidal rate of 5% or more and less than 20%) | 5 (Herbicidal rate of 90% or more (almost completely withered)) | 5 (Herbicidal rate of 90% or more (almost completely withered)) | 4 (Herbicidal rate of 70% or more and less than 90%) | 5 (Herbicidal rate of 90% or more (almost completely withered)) | 4 (Herbicidal rate of 70% or more and less than 90%) | 3 (Herbicidal rate of 40% or more and less than 70%) | 4 (Herbicidal rate of 70% or more and less than 90%) | 5 (Herbicidal rate of 90% or more (almost completely withered)) | 5 (Herbicidal rate of 90% or more (almost completely withered)) | 5 (Herbicidal rate of 90% or more (almost completely withered)) | 5 (Herbicidal rate of 90% or more (almost completely withered)) | 5 (Herbicidal rate of 90% or more (almost completely withered)) | Herbicidal effect, C: oval-leafed pondweed [21]: 0 (Herbicidal rate of 5% or less (almost no effect)); herbicidal effect on H: barnyard grass [22]: 5 (Herbicidal rate of 90% or more (almost completely withered)); herbicidal effect, O: lambsquarters [23]: 4 (Herbicidal rate of 70% or more and less than 90%); H: barnyard grass, herbicidal effect (criteria 0-5) [24]: 4 (Herbicidal rate of 70% or more and less than 90%); herbicidal effect on E: rice flat sedge [25]: 5 (Herbicidal rate of 90% or more (almost completely withered)); G: green foxtail, herbicidal effect (criteria 0-5) [26]: 5 (Herbicidal rate of 90% or more (almost completely withered)); F: southern crabgrass, herbicidal effect (criteria 0-5) [27]: 5 (Herbicidal rate of 90% or more (almost completely withered)); herbicidal effect, N: redroot pigweed [28]: 5 (Herbicidal rate of 90% or more (almost completely withered)); L: windgrass, herbicidal effect (criteria 0-5) [29]: 5 (Herbicidal rate of 90% or more (almost completely withered)); Herbicidal effect, B: Japanese bulrush [30]: 0 (Herbicidal rate of 5% or less (almost no effect))
